Laboratory results reported in PubChem BioAssay (NCI).
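Where inhibition never reached the appropriate level, the endpoint shown equals the highest concentration tested. Otherwise, values were interpolated linearly from a five-concentration, 48-hour dose response in 96-well plates. TGI marks complete inhibition of growth.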

Assays:
Experiment in all cases: growth of human tumour cells (NCI), 48 h
[1] = tested on: MALME-3M melanoma
[2] = tested on: HS 578T breast
[3] = tested on: NCI/ADR-RES ovarian
[4] = tested on: RXF 393 renal
[5] = tested on: SK-OV-3 ovarian
[6] = tested on: SK-MEL-5 melanoma
[7] = tested on: T-47D breast
[8] = tested on: A549 NSCLC
[9] = tested on: HOP-92 NSCLC
[10] = tested on: OVCAR-3 ovarian
[11] = tested on: EKVX NSCLC
[12] = tested on: PC-3 prostate
[13] = tested on: SW-620 colon
[14] = tested on: M14 melanoma
[15] = tested on: OVCAR-4 ovarian
[16] = tested on: TK-10 renal
[17] = tested on: MDA-N
[18] = tested on: OVCAR-5 ovarian
[19] = tested on: SK-MEL-2 melanoma

| SMILES | TGI [1] [µM] | TGI [2] [µM] | TGI [3] [µM] | TGI [4] [µM] | TGI [5] [µM] | TGI [6] [µM] | TGI [7] [µM] | TGI [8] [µM] | TGI [9] [µM] | TGI [10] [µM] | TGI [11] [µM] | TGI [12] [µM] | TGI [13] [µM] | TGI [14] [µM] | TGI [15] [µM] | TGI [16] [µM] | TGI [17] [µM] | TGI [18] [µM] | TGI [19] [µM] |
| --- | --- | --- | --- | --- | --- | --- | --- | --- | --- | --- | --- | --- | --- | --- | --- | --- | --- | --- | --- |
| COC(=O)/C(=C\c1cn(C(C)=O)c2ccccc12)P(=O)(OC)OC | 52 | > 100 | > 100 | 32.8 | 39.2 | 26.5 | 33.1 | 35.8 | 33.8 | 32.4 | 38 | 39.8 | 40.7 | 28.5 | 30.2 | 36 | 32.4 |  |  |
| CC(C)c1nc2c(Cl)c3ncccc3cc2[nH]c1=O | > 100 | > 100 | > 100 | > 100 | > 100 | > 100 | > 100 | > 100 | > 100 | > 100 | > 100 | > 100 | > 100 | > 100 | > 100 |  | > 100 | > 100 | > 100 |
| CCN1C[C@]2(C)CC[C@H](OCc3ccccc3)C34C5C[C@@H]6CC[C@](O)(C(C[C@@H]32)C14)C5[C@H]6OCc1ccccc1 (some centres not stated) | > 100 | > 100 | > 100 | > 100 | > 100 | > 100 | > 100 | > 100 | > 100 | > 100 | > 100 | > 100 | > 100 | > 100 | > 100 | > 100 | > 100 | > 100 | > 100 |
| O=[N+]([O-])c1ccc(NC(=S)Nc2ccccn2)cc1 | > 100 | 63 | > 100 | 17.8 | > 100 | > 100 | > 100 | > 100 | > 100 | 99.4 | > 85.6 | > 100 | > 100 | > 100 | > 100 | > 93.2 | > 100 | > 100 | > 100 |
| COc1cccc(C[C@H]2COC(=O)[C@]2(O)Cc2cccc(OC)c2)c1 | > 100 | > 100 | > 100 |  | > 100 | > 100 | 67.9 | > 100 | > 100 | > 100 | 81.6 | > 100 | > 100 | > 100 | > 100 | > 100 | > 100 | > 100 | > 100 |
| OC(C/C(=N\N=C(/CC(O)(C(F)(F)F)C(F)(F)F)c1ccccc1)c1ccccc1)(C(F)(F)F)C(F)(F)F | > 10 | > 10 | > 10 | > 10 | > 10 | > 10 | > 10 | > 10 | > 10 | > 10 | > 10 | > 10 | > 10 | > 10 | > 10 | > 10 | > 10 | > 10 | > 10 |
| Clc1ccc(-c2nnc(C34CC5CC(CC(C5)C3)C4)o2)cc1 | > 100 | > 100 | > 100 | > 100 | > 100 | > 100 | > 100 | > 100 | > 100 | > 100 | > 100 | > 100 | > 100 | > 100 | > 100 |  | > 100 | > 100 | > 100 |
| O=C(n1c(=O)n(-c2ccc(Cl)cc2)c(=O)n1C(=O)C(Cl)(Cl)Cl)C(Cl)(Cl)Cl | > 100 | > 100 | > 100 |  | > 100 | > 100 | > 100 | > 100 | > 100 | > 100 | > 100 | > 100 | > 100 |  | > 100 | > 100 | > 100 |  | > 100 |
| CC(=O)OC[C@@H](OC(C)=O)[C@@H](OC(C)=O)[C@H]1OC[C@@H]2C[C@H]([C@H]1OC(C)=O)N(Cc1ccccc1)O2 | > 100 | > 100 | > 100 | > 100 | > 100 | > 100 | > 100 | > 100 | > 100 | > 100 | > 100 | > 100 | > 100 | > 100 | > 100 | > 100 | > 100 | > 100 | > 100 |
| O=C1CCc2cc3c(cc21)CC1(Cc2cc4c(cc2C1)CCCC4)C3 | > 100 | 90.2 | > 100 | > 100 | > 100 | > 100 | > 100 | > 100 | 11.4 | > 100 | > 100 | > 100 | > 100 | > 100 | > 100 | > 100 | 39.4 | > 100 | > 100 |
| N#C/C(=C\c1ccc(Br)cc1)c1nc(-c2cc3ccccc3oc2=O)cs1 | 27.6 | 41.1 | 34.4 | > 50 | > 50 | > 50 | > 50 | > 50 | 36.6 |  | > 50 | > 50 | > 50 | > 50 | > 50 | 22.9 | > 50 | > 50 | > 50 |
| CN(C)c1ccc(N=Nc2cccc3ncccc23)cc1 | > 100 | > 100 | > 100 | > 100 | > 100 | 61.2 | > 100 | > 100 | > 100 | > 100 | > 100 | > 100 | > 100 | > 100 | > 100 | > 100 | > 100 |  | > 100 |
| COc1cc(-c2oc(C=Nc3ccccc3)c([N+](=O)[O-])c2-c2ccc(O)c(OC)c2)ccc1O |  | > 100 | > 68.1 | 51.1 | > 64.7 | > 79.5 | > 100 | > 87.2 | > 51.9 | > 100 | > 73.9 | > 64.5 | > 85.3 | > 100 | 67.8 | 39.5 | > 85.7 | > 89.6 | > 100 |
| CC[N+]1(C)CCC(O)(/C=C/c2ccc(Cl)cc2)C(C(=O)/C=C/c2ccc(Cl)cc2)C1 (configuration not stated) | 24.3 | > 30.1 | 39.7 | 25.4 | 36.8 | > 45.8 | 77.4 | 43 | 9.11 | > 61 | > 57.3 | 27.7 |  | > 38 | > 67.2 | 13 | > 34.4 | > 53.7 | 39 |
| CN1CCN(CCCCN2c3ccccc3Sc3ccc(N=[N+]=[N-])cc32)CC1 | 6.39 | 30.7 | 30 | 19.1 |  | 4.62 | 36.2 | 29.3 | 12.3 | 22.6 | 29.4 | 15.9 | 6.85 | 3.83 | 23.6 | 27.9 | 6.96 | 22.8 | 12.9 |
| Nc1cccc(C#Cc2cccc(C#Cc3cccc(N)n3)n2)n1 |  | > 100 | > 100 | > 100 | > 100 | > 100 | > 100 |  | > 100 | > 100 | > 100 | > 100 | > 100 | > 100 | > 100 | > 100 | > 100 | > 100 | > 100 |
| O=C1NC(=NC2CCCCC2)C2(CCN(CCCC3(c4ccc(F)cc4)OCCO3)CC2)N1c1ccccc1 | 30.5 | 35 | 66.8 | 31.1 | 42.7 | 28.2 | 53.2 | 46.3 |  | 25.6 | 36.2 | 38.4 | 50.2 | 41.5 | 50.2 | 32.7 | 28.7 | 30.7 | 30.2 |
| CN(C)CCCNc1ccc2nnn3c4ccc(OC(=O)c5ccc([N+](=O)[O-])cc5)cc4c(=O)c1c23 | 27.2 | 34.8 | 37.5 | 9.08 | 26.7 |  | 88.5 | 20.6 | > 57.6 | 24.1 | 25.1 | 17.5 | 17 | 27 | 10.9 | 24.9 | 26 | 28 | > 52.1 |
| [C-]#[N+]C1(C(=O)OCC)CC1 | > 100 | > 100 | > 100 | > 100 |  | > 100 | > 100 | > 100 | > 100 | > 100 | > 100 | > 100 | > 100 | > 100 | > 100 | > 100 | > 100 | > 100 |  |
| O=C1C(=C(C(=O)c2ccccc2)C(=O)c2ccccc2)OC(c2ccccc2)=C1C(=O)c1ccccc1 | 39.4 | 54.3 | 24.5 | 8.13 | 34.6 | 25 | 53.6 | 51.6 | 31.6 | 23 | 34.8 | > 100 |  | 31 | 9.2 | 61.4 | 77.9 | 50.4 | 28.3 |
| CC(=O)N1N=C(c2c(O)ccc3ccccc23)CC1c1ccc(Cl)cc1 (configuration not stated) | 76.8 | 45.1 | 43.9 | 42.9 | > 100 | 47 | > 100 | > 100 | 39.5 | 32.1 |  | 68.9 | > 100 | 33.5 | > 100 | > 100 | 40.5 | 58 | 38.2 |
| O=[N+]([O-])/C=C/COCc1cc2c(cc1Br)OCO2 |  | 50.3 | 41.6 | 30.9 | > 100 | 37.1 | 41.6 | 38.5 | 65.3 | 30.3 | 48.8 | 25.6 | 39.4 | 29.9 | 36.7 | 34.8 | 32.8 | 34.3 |  |
| COc1ccc2c(c1)CCCN1Cc3ccccc3CC21 (configuration not stated) | > 100 | > 100 | > 100 | > 100 | > 100 | 56.7 | > 100 | > 100 | > 100 | > 100 | > 100 | > 100 | > 100 | > 100 | > 100 | > 100 | > 100 | > 100 |  |
| CCN(CC)CCC(=O)c1ccc(Oc2ccccc2)cc1 | 30.1 | 52.6 | 56.4 | 36.4 | > 100 |  | 42 | > 100 | 30.1 | 45.3 | 41.4 | > 100 | 31.3 | > 100 | 76.9 | 27.5 | 30.1 | 46.4 | > 100 |
| Cc1csc2nc3[nH]ncc3c(=O)n12 | > 100 | > 100 | > 100 |  | > 100 | > 100 | > 100 | > 100 |  | > 100 | > 100 | > 100 | > 100 | > 100 | > 100 |  | > 100 | > 100 | > 100 |
